Tests used:
USP28 [1] = target: T1, USP28 (Homo sapiens, UniProt Q96RU2); assay: Bio-layer interferometry; format: binding
T1 sequence (Q96RU2 1-700): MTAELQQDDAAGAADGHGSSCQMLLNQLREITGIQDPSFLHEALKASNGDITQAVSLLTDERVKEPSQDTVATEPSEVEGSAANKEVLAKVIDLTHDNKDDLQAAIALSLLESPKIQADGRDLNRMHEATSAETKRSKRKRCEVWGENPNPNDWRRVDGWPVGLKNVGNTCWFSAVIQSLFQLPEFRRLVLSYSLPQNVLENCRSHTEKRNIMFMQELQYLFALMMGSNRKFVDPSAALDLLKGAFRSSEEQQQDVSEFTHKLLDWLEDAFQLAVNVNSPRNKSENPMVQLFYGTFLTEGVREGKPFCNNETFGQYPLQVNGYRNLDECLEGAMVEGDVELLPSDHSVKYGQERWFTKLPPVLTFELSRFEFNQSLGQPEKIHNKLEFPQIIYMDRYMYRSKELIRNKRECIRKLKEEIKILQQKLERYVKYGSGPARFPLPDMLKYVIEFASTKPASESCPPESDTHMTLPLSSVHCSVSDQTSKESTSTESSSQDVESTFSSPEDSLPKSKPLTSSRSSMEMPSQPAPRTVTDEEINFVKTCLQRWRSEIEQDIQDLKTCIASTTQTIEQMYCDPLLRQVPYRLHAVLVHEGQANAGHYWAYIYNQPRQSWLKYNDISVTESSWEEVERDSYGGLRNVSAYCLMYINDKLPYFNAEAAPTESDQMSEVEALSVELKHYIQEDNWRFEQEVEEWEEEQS

HGC-27 cells [2] = assay: Wound healing assay, HGC-27; format: cell-based, human; conditions: HGC-27, 48 h
MKN45 cells = assay: cells; conditions: Homo sapiens, MKN-45, 72 h, read-out: IC50 cell viability MKN45
MGC-803 cells [3] = assay: Transwell migration assay, MGC-803; format: cell-based, human; conditions: MGC-803, 48 h
HGC-27 cells [4] = assay: MTT cell viability assay, HGC-27; conditions: Homo sapiens, HGC-27, 72 h, read-out: IC50 cell viability HGC-27
HGC-27 cells [5] = assay: Annexin V-FITC/PI apoptosis analysis; format: cell-based, human
USP28 [6] = target: T1, USP28; assay: biochemical; format: biochemical; conditions: read-out: Inhibition rate at 12.5 μmol/L (%)
HGC-27 cells [7] = assay: Cell cycle assay; format: cell-based, human; conditions: HGC-27, 24 h
USP28 in MGC-803 cells = target: T2, USP28 in MGC-803 cells (Homo sapiens, UniProt Q96RU2); assay: Cellular thermal shift target engagement assay, MGC-803; format: cell-based; conditions: MGC-803, 0.75 μmol/L, 3 h, 60 °C
T2 sequence (Q96RU2 1-1077): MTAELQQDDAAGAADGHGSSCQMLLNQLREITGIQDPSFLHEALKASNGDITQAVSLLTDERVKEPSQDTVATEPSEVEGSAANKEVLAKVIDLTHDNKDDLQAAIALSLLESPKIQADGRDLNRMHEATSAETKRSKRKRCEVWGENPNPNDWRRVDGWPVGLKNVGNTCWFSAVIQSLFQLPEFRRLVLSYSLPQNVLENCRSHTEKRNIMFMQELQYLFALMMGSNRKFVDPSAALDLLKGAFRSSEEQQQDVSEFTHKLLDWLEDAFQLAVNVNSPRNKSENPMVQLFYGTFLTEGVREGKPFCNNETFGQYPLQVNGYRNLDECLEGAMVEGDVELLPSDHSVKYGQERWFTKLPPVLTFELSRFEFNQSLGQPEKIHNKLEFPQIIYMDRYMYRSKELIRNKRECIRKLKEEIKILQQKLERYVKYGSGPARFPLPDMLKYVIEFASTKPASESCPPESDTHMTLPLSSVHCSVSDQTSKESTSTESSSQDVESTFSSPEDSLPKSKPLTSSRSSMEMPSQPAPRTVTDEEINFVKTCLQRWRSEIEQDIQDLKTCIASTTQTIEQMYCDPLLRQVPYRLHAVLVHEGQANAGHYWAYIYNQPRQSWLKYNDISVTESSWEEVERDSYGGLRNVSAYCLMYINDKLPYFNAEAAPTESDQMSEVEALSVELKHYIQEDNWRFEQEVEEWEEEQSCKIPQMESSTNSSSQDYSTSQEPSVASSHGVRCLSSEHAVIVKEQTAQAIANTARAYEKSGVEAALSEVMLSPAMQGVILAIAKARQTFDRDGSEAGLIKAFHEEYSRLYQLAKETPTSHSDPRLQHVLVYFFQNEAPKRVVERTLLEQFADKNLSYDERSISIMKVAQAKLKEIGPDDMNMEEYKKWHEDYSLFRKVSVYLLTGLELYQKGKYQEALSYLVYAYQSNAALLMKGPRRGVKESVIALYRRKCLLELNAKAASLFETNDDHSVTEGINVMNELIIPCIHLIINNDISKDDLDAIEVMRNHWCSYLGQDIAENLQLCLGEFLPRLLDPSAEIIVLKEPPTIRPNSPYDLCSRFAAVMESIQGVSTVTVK

MGC-803 cells [8] = assay: Colony formation, MGC-803; format: cell-based, human; conditions: MGC-803, 0.75, 1.5 and 3.0 μmol/L, 8 days
USP28 in HGC-27 cells = target: T3, USP28 in HGC-27 cells (Homo sapiens, UniProt Q96RU2); assay: Cellular thermal shift target engagement assay, HGC-27; format: cell-based; conditions: HGC-27, 0.75 μmol/L, 3 h, 60 °C
T3 sequence (Q96RU2 1-1077): T2 sequence (Q96RU2 1-1077)

GES-1 cells = assay: cells; conditions: Homo sapiens, GES1, 72 h, read-out: IC50 cell viability GES-1
USP7 = USP7 (Homo sapiens, UniProt Q93009); assay: Enzymatic inhibitory activity against USP7; format: biochemical
HGC-27 cells [9] = assay: EdU incorporation assay; format: cell-based, human
HGC-27 cells [10] = assay: Colony formation, HGC-27; format: cell-based, human; conditions: HGC-27, 0.75, 1.5 and 3.0 μmol/L, 8 days
LSD1 = LSD1 (Homo sapiens, UniProt O60341); assay: Enzymatic inhibitory activity against LSD1; format: biochemical
HGC-27 cells [11] = assay: Transwell migration assay, HGC-27; format: cell-based, human; conditions: HGC-27, 48 h
MGC-803 cells [12] = assay: cells; conditions: Homo sapiens, MGC-803, 72 h, read-out: IC50 cell viability MGC-803
MGC-803 cells [13] = assay: Wound healing assay, MGC-803; format: cell-based, human; conditions: MGC-803, 48 h
[14] = tested on: USP28, LSD1 and total c-Myc in HGC-27 cells; assay: Western blotting of USP28, LSD1 and total c-Myc; format: cell-based, human; conditions: HGC-27, 3 h, Western blotting

Sequence of USP7 (Q93009 whole entry, species assumed): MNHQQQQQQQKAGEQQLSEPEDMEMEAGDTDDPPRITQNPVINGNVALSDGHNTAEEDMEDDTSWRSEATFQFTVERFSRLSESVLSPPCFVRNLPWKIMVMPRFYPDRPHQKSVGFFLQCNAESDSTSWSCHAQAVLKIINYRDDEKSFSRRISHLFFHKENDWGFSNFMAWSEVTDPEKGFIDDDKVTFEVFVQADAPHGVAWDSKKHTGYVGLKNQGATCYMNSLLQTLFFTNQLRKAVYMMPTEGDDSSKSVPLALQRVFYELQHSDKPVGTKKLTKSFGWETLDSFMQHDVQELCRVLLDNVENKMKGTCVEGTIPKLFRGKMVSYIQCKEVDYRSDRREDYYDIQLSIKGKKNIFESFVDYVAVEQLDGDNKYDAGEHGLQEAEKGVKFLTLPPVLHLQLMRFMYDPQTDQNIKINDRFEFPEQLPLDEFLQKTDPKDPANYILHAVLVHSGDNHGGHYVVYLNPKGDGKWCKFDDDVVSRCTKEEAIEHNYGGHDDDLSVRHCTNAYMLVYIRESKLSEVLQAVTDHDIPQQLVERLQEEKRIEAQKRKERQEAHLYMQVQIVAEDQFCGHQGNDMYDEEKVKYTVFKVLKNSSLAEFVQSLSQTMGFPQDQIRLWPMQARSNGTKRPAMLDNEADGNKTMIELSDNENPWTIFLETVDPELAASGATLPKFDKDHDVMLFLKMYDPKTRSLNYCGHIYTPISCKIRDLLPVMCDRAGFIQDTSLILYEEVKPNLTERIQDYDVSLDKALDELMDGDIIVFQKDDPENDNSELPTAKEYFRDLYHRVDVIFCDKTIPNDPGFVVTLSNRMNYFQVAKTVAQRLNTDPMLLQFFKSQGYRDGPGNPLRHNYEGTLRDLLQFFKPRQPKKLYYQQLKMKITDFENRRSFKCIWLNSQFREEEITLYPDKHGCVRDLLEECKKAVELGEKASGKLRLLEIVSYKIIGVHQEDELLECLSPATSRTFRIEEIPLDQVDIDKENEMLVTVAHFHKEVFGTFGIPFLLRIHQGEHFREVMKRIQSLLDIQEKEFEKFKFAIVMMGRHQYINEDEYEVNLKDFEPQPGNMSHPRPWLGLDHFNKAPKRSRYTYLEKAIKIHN

SMILES: CCCSc1nc(NCCN)c2nnn(Cc3ccc(Cl)cc3)c2n1 [Compound 19, N^1-(3-(4-Chlorobenzyl)-5-(propylthio)-3H-[1,2,3]triazolo[4,5-d]pyrimidin-7-yl)ethane-1,2-diamine]
- Kd (USP28 [1]): 40 nM
- wound healing (HGC-27 cells [2]): apparently suppressed the wound healing
- IC50 (MKN45 cells): 1490 ± 980 nM
- cell migration (Transwell) (MGC-803 cells [3]): apparently inhibited cell migration
- IC50 (HGC-27 cells [4]): 610 ± 450 nM
- apoptotic rate (Annexin V-FITC/PI, Q2) (HGC-27 cells [5]; HGC-27, 0.18 μmol/L): 6.5%
- apoptotic rate (Annexin V-FITC/PI, Q2) (HGC-27 cells [5]; HGC-27, 0.37 μmol/L): 9.3%
- apoptotic rate (Annexin V-FITC/PI, Q2) (HGC-27 cells [5]; HGC-27, 0.75 μmol/L): 10.5%
- apoptotic rate (Annexin V-FITC/PI, Q2) (HGC-27 cells [5]; HGC-27, 1.5 μmol/L): 21.2%
- inhibition at 12.5 µM (USP28 [6]): 90%
- percentage of cells in S phase (HGC-27 cells [7]; 0.18 μmol/L): 36.02%
- percentage of cells in S phase (HGC-27 cells [7]; 0.37 μmol/L): 38.58%
- percentage of cells in S phase (HGC-27 cells [7]; 0.75 μmol/L): 39.27%
- percentage of cells in S phase (HGC-27 cells [7]; 1.5 μmol/L): 42.98%
- USP28 thermal stabilization (CTSA) (USP28 in MGC-803 cells): stabilized
- colony formation (MGC-803 cells [8]): dose-dependently inhibited colony formation
- USP28 thermal stabilization (CTSA) (USP28 in HGC-27 cells): stabilized
- IC50 (GES-1 cells): 9.19 ± 1.15 µM
- IC50 (USP7): > 100 µM
- DNA proliferation (EdU) (HGC-27 cells [9]): suppressed DNA proliferation
- colony formation (HGC-27 cells [10]): dose-dependently inhibited colony formation
- IC50 (LSD1): > 100 µM
- cell migration (Transwell) (HGC-27 cells [11]): apparently inhibited cell migration
- IC50 (MGC-803 cells [12]): 4.95 ± 0.33 µM
- wound healing (MGC-803 cells [13]): apparently suppressed the wound healing
- USP28 expression [14]: decreased in a dose-dependent manner
- protein levels of LSD1 and total c-Myc [14]: decreased correspondingly
